From patent US20200283726A1, “PROCESS FOR CONTINUOUS CELL CULTURE OF GPSCS” (Georgetown University, priority 2017, published 2020)

System: gPSCs
Assay: Upstream/downstream ROCK pathway inhibitors used in the culture conditions in place of a ROCK inhibitor
Type: cell-based
Description: As used herein, inhibiting ROCK can mean to reduce the activity, function or expression of at least one of ROCK1 or ROCK2. […] In general, ROCK phosphorylates LIM kinase and myosin light chain (MLC) phosphatase after being activated through binding of GTP-bound Rho. One embodiment of the present invention thus involves blocking the upstream pathway of ROCK1 and/or ROCK2, for example GTP-bound Rho, such that ROCK1 and/or ROCK2 is not activated or its activity is reduced over untreated cells. Other upstream effectors include but are not limited to, integrins, growth factor receptors, including but not limited to, TGF-beta and EGFR, cadherins, G protein coupled receptors and the like. Another embodiment of the present invention thus involves blocking the activity, function or expression of downstream effector molecules of activated ROCK1 and/or ROCK2 such that ROCK1 and/or ROCK2 cannot propagate any signal or can only propagate a reduced signal over untreated cells. Downstream effectors include but are not limited to, Myosin phosphatase-targeting protein (MYPT), vimentin, LIMK, Myosin light chain kinase, NHE1, cofilin, Myosin II and the like. […] Upstream or downstream inhibition of ROCK, in place of direct ROCK inhibition and in conjunction with the other culture conditions described and required herein, may or may not generate conditionally immortalized gPSCs.

Compound: Cc1ccc2c(c1)C(=O)C1(O)CCN(c3ccccc3)C1=N2 (centres unmarked) [blebbistatin]
- Effect on cells in culture: allow the cells to bypass differentiation and allow proliferation in vitro

Compound: C3 transferase
- Effect on cells in culture: allow the cells to bypass differentiation and allow proliferation in vitro
